What is called IC50 is the midpoint of a concentration-inhibition curve.

The structures appear in SMILES notation. Counter-ions that a name gives are not always drawn.

The target in assay [1] is recombinant human α2C receptor CHO cell line (Homo sapiens (Human), UniProt P18825). The experiment in a line: Antagonism against adrenoreceptor α2C (luminescence, noradrenaline-stimulated recombinant CHO cells). In kind it is cell-based. Particulars: 20 nM noradrenaline, tested up to 10 μM. How it is done: B-1a) Antagonism Against Adrenoreceptors
Antagonism against the adrenoreceptor α1A was tested using a recombinant human α1A receptor CHO cell line which additionally also recombinantly expresses mtAeq (mitochondrial aequorin). Antagonism against the adrenoreceptor α2A was tested using a recombinant human α2A-Gα16 receptor fusion protein CHO cell line (PerkinElmer Life Sciences) which additionally also recombinantly expresses mtAeq. Antagonism against the adrenoreceptor α2B was tested using a recombinant human α2B receptor CHO cell line (PerkinElmer Life Sciences) which additionally also recombinantly expresses mtAeq. Antagonism against the adrenoreceptor α2C was tested using a recombinant human α2C receptor CHO cell line which additionally also recombinantly expresses a chimeric G protein (Gαqi3) and mtOb (mitochondrial obelin).
The cells were cultivated at 37° C. and 5% CO2 in Dulbecco's modified Eagle's Medium/NUT mix F12 with L-glutamine which additionally contained 10% (v/v) inactivated foetal calf serum, 1 mM sodium pyruvate, 0.9 mM sodium bicarbonate, 50 U/ml penicillin, 50 μg/ml streptomycin, 2.5 μg/ml amphotericin B and 1 mg/ml Geneticin. The cells were passaged with enzyme-free Hank's-based cell dissociation buffer. All cell culture reagents used were from Invitrogen (Carlsbad, USA).
Luminescence measurements were carried out on white 384-well microtitre plates. 2000 cells/well were plated in a volume of 25 μl and cultivated for one day at 30° C. and 5% CO2 in cell culture medium with coelenterazine (α2A and α2B: 5 μg/ml; α1a/c and α2C: 2.5 μg/ml). Serial dilutions of the test substances (10 μl) were added to the cells. After 5 minutes, noradrenaline was added to the cells (35 μl; final concentrations: 20 nM (α1a/c and α2C) or 200 nM (α2A and α2B)), and the emitted light was measured for 50 seconds using a CCD (charge-coupled device) camera (Hamamatsu Corporation, Shizuoka, Japan) in a light-tight box. The test substances were tested up to a maximum concentration of 10 μM. The IC50 values were calculated from the appropriate dose-response curves.

Assay [2] concerns diabetic (ZDFfa/fa) and healthy rats (Wistar). Kind of assay: Assay of perfusion-enhancing substances (microcirculation), laser doppler probe at the paw. It counts as in vivo, rat. The settings on record: single oral dose; for factor by which microcirculation is improved at MED compared to placebo: at the MED, 30 min after administration; for MED skin temperature: minimum effective dose for significant increase of skin temperature (ttest); for MED microcirculation: minimum effective dose with significantly improved microcirculation vs placebo, measured 30 min after administration. From the text:
B-2e) Assay of Perfusion-Enhancing Substances (Microcirculation)
In diabetic (ZDFfa/fa) and healthy rats (Wistar), a laser doppler probe was fastened under anaesthesia conditions (isoflurane anaesthesia) at the sole of the paw for measuring cutaneous microcirculation. The test animals were once treated orally with the test substances. During the experiment, microperfusion and temperature of the lower extremities were documented continuously. Here, a temperature-sensitive laser doppler probe (Periflux, 02C) was fastened with adhesive to the paws of the animals, allowing the measurement of microperfusion and skin temperature. The microcirculation measurement values were measured on both paws 30 min after oral administration of the test substance. […] Also stated is the MED for the significant increase of skin temperature (ttest).
Microcirculation data for adrenoreceptor α2C receptor antagonist of the compound of Example 11 and for comparative substance ORM12741, an AR α2C receptor antagonist from Orion, are shown in Table 2: […]

Chain of recombinant human α2C receptor CHO cell line (P18825 whole entry, the tested form may be a part): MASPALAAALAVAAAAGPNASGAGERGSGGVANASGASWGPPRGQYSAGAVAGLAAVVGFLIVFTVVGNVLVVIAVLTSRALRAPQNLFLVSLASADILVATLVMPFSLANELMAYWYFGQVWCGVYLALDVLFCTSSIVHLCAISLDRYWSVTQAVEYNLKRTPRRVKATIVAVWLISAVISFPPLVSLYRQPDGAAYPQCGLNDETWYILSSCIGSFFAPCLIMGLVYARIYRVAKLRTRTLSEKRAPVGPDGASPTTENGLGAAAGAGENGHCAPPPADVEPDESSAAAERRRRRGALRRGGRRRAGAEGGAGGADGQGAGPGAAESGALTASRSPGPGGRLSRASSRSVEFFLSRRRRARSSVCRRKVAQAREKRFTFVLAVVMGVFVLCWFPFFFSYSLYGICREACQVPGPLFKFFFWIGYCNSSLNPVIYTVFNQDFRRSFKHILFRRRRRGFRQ

With `C[C@@H]1CCCN(C2CCN(C(=O)c3ccc(N4CCOCC4)nc3)CC2)C1` [Example 1, [(3R)-3-Methyl-1,4′-bipiperidin-1′-yl][6-(morpholin-4-yl)pyridin-3-yl]methanone formic acid salt], the IC50 in assay [1] (formic acid salt) was 0.028 µM.
Take `C[C@@H]1CCCN(C2CCN(C(=O)c3ccc(N4CCOCC4)nc3)CC2)C1` [Example 2, [(3R)-3-Methyl-1,4′-bipiperidin-1′-yl][6-(morpholin-4-yl)pyridin-3-yl]methanone]: the IC50 in assay [1] was 0.05 µM.
On the same count and under the same terms, to `COC[C@H]1CCCN1c1ccc(C(=O)N2CCC(N3CCC[C@@H](C)C3)CC2)cn1` [Example 3, {6-[(2R)-2-(Methoxymethyl)pyrrolidin-1-yl]pyridin-3-yl}[(3R)-3-methyl-1,4′-bipiperidin-1′-yl]methanone formic acid salt] belongs 0.011 µM; to `COCCNc1ccc(C(=O)N2CCC(N3CCC[C@@H](C)C3)CC2)cn1` [Example 4, {6-[(2-Methoxyethyl)amino]pyridin-3-yl}[(3R)-3-methyl-1,4′-bipiperidin-1′-yl]methanone], 0.036 µM; to `C[C@@H]1CCCN(C2CCN(C(=O)c3ccc(N4CCC(F)(F)CC4)nc3)CC2)C1` [Example 5, [6-(4,4-Difluoropiperidin-1-yl)pyridin-3-yl][(3R)-3-methyl-1,4′-bipiperidin-1′-yl]methanone], 0.018 µM.
As for `COCCN(C)c1ccc(C(=O)N2CCC(N3CCC[C@@H](C)C3)CC2)cn1` [Example 6, {6-[(2-Methoxyethyl)(methyl)amino]pyridin-3-yl}[(3R)-3-methyl-1,4′-bipiperidin-1′-yl]methanone hydrochloride], the IC50 in assay [1] worked out at 0.033 µM.
On to `O=C(c1ccc(N2CCOCC2)nc1)N1CCC(N2CCCC(OCC3CC3)C2)CC1` (stereo not drawn) [Example 7, [3-(Cyclopropylmethoxy)-1,4′-bipiperidin-1′-yl][6-(morpholin-4-yl)pyridin-3-yl]methanone], for which the IC50 in assay [1] was 0.013 µM.
On to `C[C@@H]1CCCN(C2CCN(C(=O)c3ccc(N(C)Cc4c(F)cccc4F)nc3)CC2)C1` [Example 8, {6-[(2,6-Difluorobenzyl)(methyl)amino]pyridin-3-yl}[(3R)-3-methyl-1,4′-bipiperidin-1′-yl]methanone], for which the IC50 in assay [1] turned out to be 0.0045 µM.
With `C[C@@H]1CCCN(C2CCN(C(=O)c3ccc(N4CCS(=O)(=O)CC4)nc3)CC2)C1` [Example 9, [6-(1,1-Dioxidothiomorpholin-4-yl)pyridin-3-yl][(3R)-3-methyl-1,4′-bipiperidin-1′-yl]methanone], the IC50 in assay [1] was determined as 0.027 µM.
As for `CC[C@@H](CO)Nc1ccc(C(=O)N2CCC(N3CCC[C@@H](C)C3)CC2)cn1` [Example 10, (6-{[(2 S)-1-Hydroxybutan-2-yl]amino}pyridin-3-yl)[(3R)-3-methyl-1,4′-bipiperidin-1′-yl]methanone], the IC50 in assay [1] is 0.018 µM.
`CCC(CO)Nc1ccc(C(=O)N2CCC(N3CCC[C@@H](C)C3)CC2)cn1` (stereo partly drawn) [Example 11, {6[(1-Hydroxybutan-2-yl)amino]pyridin-3-yl}[(3R)-3-methyl-1,4′-bipiperidin-1′-yl]methanone]: the IC50 in assay [1] was found to be 0.062 µM. Further, in assay [2], the “factor by which microcirculation is improved at MED compared to placebo” value was 2.4 ×, the MED skin temperature came to 1 mg/kg and the MED microcirculation amounted to 1 mg/kg.
For `CCC(COC(N)=O)Nc1ccc(C(=O)N2CCC(N3CCC[C@@H](C)C3)CC2)cn1` (stereo partly drawn) [Example 12, 2-[(5-{[(3R)-3-Methyl-1,4′-bipiperidin-1′-yl]carbonyl}pyridin-2-yl)amino]butyl carbamate], the IC50 in assay [1] amounted to 0.021 µM.
On to `COC1CCN(c2ccc(C(=O)N3CCC(N4CCC[C@@H](C)C4)CC3)cn2)C1` (stereo partly drawn) [Example 13, [6-(3-Methoxypyrrolidin-1-yl)pyridin-3-yl][(3R)-3-methyl-1,4′-bipiperidin-1′-yl]methanone], for which the IC50 in assay [1] was determined as 0.012 µM.
Same read-out and setting: to `CCC(COC)Nc1ccc(C(=O)N2CCC(N3CCC[C@@H](C)C3)CC2)cn1` (stereo partly drawn) [Example 14, {6-[(1-Methoxybutan-2-yl)amino]pyridin-3-yl}[(3R)-3-methyl-1,4′-bipiperidin-1′-yl]methanone] belongs 0.016 µM; to `CC1CCCN(c2ccc(C(=O)N3CCC(N4CCC[C@@H](C)C4)CC3)cn2)C1` (stereo partly drawn) [Example 15, [(3R)-3-Methyl-1,4′-bipiperidin-1′-yl][6-(3-methylpiperidin-1-yl)pyridin-3-yl]methanone], 0.027 µM; to `C[C@@H]1CCCN(C2CCN(C(=O)c3cnc(N4CCOCC4)nc3)CC2)C1` [Example 16, [(3R)-3-Methyl-1,4′-bipiperidin-1′-yl][2-(morpholin-4-yl)pyrimidin-5-yl]methanone], 0.054 µM.
With `O=C(c1cnc(N2CCOCC2)nc1)N1CCC(N2CCCC(OCC3CC3)C2)CC1` (stereo not drawn) [Example 17, [3-(Cyclopropylmethoxy)-1,4′-bipiperidin-1′-yl][2-(morpholin-4-yl)pyrimidin-5-yl]methanone], the IC50 in assay [1] worked out at 0.014 µM.
On to `C[C@@H]1CCCN(C2CCN(C(=O)c3cnc(N4CC5(COC5)C4)nc3)CC2)C1` [Example 18, [(3R)-3-Methyl-1,4′-bipiperidin-1′-yl][2-(2-oxa-6-azaspiro[3.3]hept-6-yl)pyrimidin-5-yl]methanone], for which the IC50 in assay [1] worked out at 0.024 µM.
Still for that read-out and setting: to `C[C@@H]1CCCN(C2CCN(C(=O)c3cnc(N4CCC(F)(F)CC4)nc3)CC2)C1` [Example 19, [2-(4,4-Difluoropiperidin-1-yl)pyrimidin-5-yl][(3R)-3-methyl-1,4′-bipiperidin-1′-yl]methanone] belongs 0.019 µM; to `COC[C@H]1CCCN1c1ncc(C(=O)N2CCC(N3CCC[C@@H](C)C3)CC2)cn1` [Example 20, {2-[(2R)-2-(Methoxymethyl)pyrrolidin-1-yl]pyrimidin-5-yl}[(3R)-3-methyl-1,4′-bipiperidin-1′-yl]methanone], 0.041 µM.
As for `C[C@@H]1CCCN(C2CCN(C(=O)c3cnc(N4CCS(=O)(=O)CC4)cn3)CC2)C1` [Example 21, [5-(1,1-Dioxidothiomorpholin-4-yl)pyrazin-2-yl][(3R)-3-methyl-1,4′-bipiperidin-1′-yl]methanone], the IC50 in assay [1] is 0.071 µM.
Take `COC[C@@]1(C)CCCN2CCc3c(oc4ccccc34)[C@@H]21` [ORM-12741, reference compound]: in assay [2], the “factor by which microcirculation is improved at MED compared to placebo” value amounted to 1.9 ×, the MED skin temperature came out at 0.01 mg/kg and the MED microcirculation is 0.1 mg/kg.

For the origin of these results see patent US9624199B2, “Substituted bipiperidinyl derivatives” (Bayer Pharma Aktiengesellschaft, priority 2013, dated 2017).
